Laboratory results: patent US4921847A, “Trihalo(amine)gold(III) anti-tumor complexes” (Engelhard Corporation, priority 1989, dated 1990)

How the values were obtained:
S180 ascites = test: Anti-tumor evaluation against S180 ascites in mice (% increase in life span, survivors); type: in vivo, female CFW Swiss mice; conditions: for Survivors: day of evaluation; for Anti-tumor activity (in words): 50% ILS criterion; for % ILS against criterion for anti-tumor activity: failed to meet the 50% ILS criterion
Protocol: The above prepared compounds were evaluated against S180 ascites in female CFW Swiss mice. The mice were weighed (average weight: 20 g), placed into cages (six mice to a cage) and on day zero the mice were inoculated with 0.2 ml of a freshly prepared saline suspension (0.15 M NaCl) containing 1×10^7 tumor cells/ml or a total of 2×10^6 cells. This inoculum was freshly prepared using "transfer" mice which had been injected with tumor cells the previous week; it was obtained via the following steps: (1) the removal of cells from the peritoneal cavity of the sacrificed transfer mouse, (2) alternate centrifugation and washing operations (2-3 times with cold saline) to remove blood and other components, and (3) dilution of the volume of the packed cell with saline (1:3). A final centrifugation was carried out at 1000 RPM over a two minute period. A cell count was made on a 2,000-fold dilution of this 1:3 suspension by means of a Coulter Counter. A final dilution to 1×10^7 cells/ml was made based on the average count.
On day 1, solutions of the test compounds were prepared and each mouse in a set of six were injected with the same test compound at the same dosage. The doses were based on the average weight of the animals (cage weight). Also, beginning on day 1 two controls were employed containing six mice per control:
(1) Normal Control: This consisted solely of the carrier or diluent used in combination with the test compound; and
(2) Positive Control: This consisted solely of the known anti-tumor agent cis-[Pt(NH3)2 Cl2 ] (Cisplatin) in saline (8 mg/kg) to test the response of the biological system.
The effectiveness of a test compound was measured in terms of the % increase in life span (%ILS) of the test mice relative to the Normal Control (Calculated from the day of tumor inoculation, i.e., day zero). To standardize the test data and permit intercomparisons, the day of evaluation was arbitrarily taken as that day corresponding to twice the mean life span (or average day of death) of the control. This established a practical upper limit of 100% on the %ILS attainable. For calculation purposes the survivors on the day of evaluation were considered to have died on that day. The %ILS was calculated as follows: [formula] ILS values in excess of 50% were interpreted as being indicative of anti-tumor activity, whereas, values in excess of 75% indicated excellent activity.
The products of Examples 1, 4, 10 and 11 were administered in a freshly prepared 1% sodium bicarbonate solution; the remaining test compounds were administered as slurries in 0.5% "Klucel" (hydroxypropylcellulose).

Sarcoma 180 tumors = test: Therapeutic index (LD50/ED90), implanted Sarcoma 180 tumors; type: in vivo, Swiss white mice; parameters: ED90: unit not given here; conditions: for Therapeutic Index: LD50/ED90; for Maximum % ILS (Dosage): S 180 ascites; for ED90: dose giving 50% increase in life span for 90% of the animals, determined graphically
Solubility = type: physicochemical

| SMILES | % ILS (S180 ascites; S 180 ascites, 10 mg/kg) [%] | Survivors (S180 ascites; S 180 ascites, 10 mg/kg) | % ILS (S180 ascites; S 180 ascites, 20 mg/kg) [%] | Survivors (S180 ascites; S 180 ascites, 20 mg/kg) | % ILS (S180 ascites; S 180 ascites, 40 mg/kg) [%] | Survivors (S180 ascites; S 180 ascites, 40 mg/kg) | % ILS (S180 ascites; S 180 ascites, 80 mg/kg) [%] | Survivors (S180 ascites; S 180 ascites, 80 mg/kg) | % ILS (S180 ascites; S 180 ascites, 160 mg/kg) [%] | Survivors (S180 ascites; S 180 ascites, 160 mg/kg) | Anti-tumor activity (in words) (S180 ascites; S 180 ascites) | Therapeutic Index (Sarcoma 180 tumors) | Maximum % ILS (Dosage) (Sarcoma 180 tumors; 40 mg/kg) [%] | ED90 (Sarcoma 180 tumors) | % ILS (S180 ascites; S 180 ascites, 320 mg/kg) [%] | Survivors (S180 ascites; S 180 ascites, 320 mg/kg) | also measured |
| --- | --- | --- | --- | --- | --- | --- | --- | --- | --- | --- | --- | --- | --- | --- | --- | --- | --- |
| Cn1cc[n+]([Au-]([Cl])([Cl])[Cl])c1 [Example 2, Trichloro(N-Methylimidazole)Gold(III)] | 14 | 0 of 6 | 33 | 1 of 6 | 91 | 4 of 6 | 53 | 1 of 6 | -93 | 0 of 6 | decidedly active | 2.8 | 91 | 31 |  |  | peak ILS values (S180 ascites; S 180 ascites): > 90%; % ILS (S180 ascites; S 180 ascites, 5 mg/kg): 2%; Survivors (S180 ascites; S 180 ascites, 5 mg/kg): 0 of 6; active dose range (S180 ascites; S 180 ascites, decidedly active within the range): 20 to 40 mg/kg |
| CC(=O)c1ccc[n+]([Au-]([Cl])([Cl])[Cl])c1 [Example 3, trichloro(3-acetylpyridine)gold(III)] | -5 | 0 of 6 | 42 | 1 of 6 | 97 | 5 of 6 | 66 | 4 of 6 | 23 | 0 of 6 |  | 4.5 | 97 | 31 | -90 | 0 of 6 | peak ILS values (S180 ascites; S 180 ascites): > 90% |
| Oc1ccc[n+]([Au-]([Cl])([Cl])[Cl])c1 [Example 5] | 9 | 0 of 6 | 39 | 2 of 6 | 61 | 3 of 6 | 30 | 2 of 6 | -36 | 0 of 6 |  |  | 61 | 87 | -85 | 0 of 6 |  |
| OCc1ccc[n+]([Au-]([Cl])([Cl])[Cl])c1 [Example 6] | 6 | 0 of 6 | 63 | 1 of 6 | 85 | 3 of 6 | 46 | 0 of 6 | -70 | 0 of 6 |  | 2.1 | 85 | 43 | -93 | 0 of 6 |  |
| [Cl][Au]([Cl])[Cl].c1ccncc1 [Example 7, trichloro(pyridine)gold(III)] | 45 | 3 of 6 | 71 | 2 of 6 | 66 | 3 of 6 | -6 | 2 of 6 | -94 | 0 of 6 |  |  |  | 35 | -94 | 0 of 6 | Maximum % ILS (Dosage) (Sarcoma 180 tumors; 20 mg/kg): 71% |
| [Cl][Au-]([Cl])([Cl])[n+]1cc[nH]c1 [Example 8, trichloro(imidazole)gold(III)] | -7 | 0 of 6 | 1 | 1 of 6 | -16 | 0 of 6 | 37 | 1 of 6 | 37 | 2 of 6 | considered to be inactive |  |  |  |  |  | % ILS (S180 ascites; S 180 ascites, 5 mg/kg): 5%; Survivors (S180 ascites; S 180 ascites, 5 mg/kg): 0 of 6; Anti-tumor activity (in words) (S180 ascites; S 180 ascites, listed as trichloro(imidazole)gold(III)): inactive in bringing about a regression of S 180 ascites at all doses tested; % ILS against criterion for anti-tumor activity (S180 ascites): < 50% |
| Cn1cc[n+]([Au-]([Br])([Br])[Br])c1 [Example 9, Tribromo(N-Methylimidazole)Gold(III)] | 5 | 0 of 6 | 76 | 4 of 6 | 66 | 3 of 6 | -1 | 1 of 6 | -94 | 0 of 6 |  | 2.0 |  | 42 | -94 | 0 of 6 | Maximum % ILS (Dosage) (Sarcoma 180 tumors; 20 mg/kg): 76% |
| O=C(O)c1ccc[n+]([Au-]([Br])([Br])[Br])c1 [Example 10] | -23 | 0 of 6 | 26 | 0 of 6 | 64 | 2 of 6 | 49 | 0 of 6 | -19 | 0 of 6 |  |  |  |  | -95 | 0 of 6 | solubility in 1% sodium bicarbonate solution (Solubility): 12.8 mg/mL |
| O=C(O)Cc1ccc[n+]([Au-]([Br])([Br])[Br])c1 [Example 11, tribromo(3-pyridylacetic acid)gold(III)] | -16 | 0 of 6 | 20 | 0 of 6 | 10 | 0 of 6 | 31 | 1 of 6 | -21 | 0 of 6 | considered to be inactive |  |  |  | -92 | 0 of 6 | Anti-tumor activity (in words) (S180 ascites; S 180 ascites, listed as tribromo(3-pyridylacetic acid)gold(III)): inactive as an anti-tumor agent; % ILS against criterion for anti-tumor activity (S180 ascites): < 50%; solubility in 1% sodium bicarbonate solution (Solubility): 12.8 mg/mL |
